Results as given in publication PMC12186255, “Discovery and Characterization of Small Molecule Inhibitors Targeting Exonuclease 1 for Homologous Recombination-Deficient Cancer Therapy” (ACS Chemical Biology, 2025).
Entries after “also recorded” stand apart in the source; their conditions may differ.

What was measured:
U2OS cells = assay: Homologous recombination assay (HR-GFP reporter); assay type: cell-based, human; conditions: I-SceI, 0, 10, 50, 100 μM, 48 h
Experimental: Following viral infection, the culture medium was replaced with a fresh medium containing small molecule inhibitors. […] Subsequently, cells were harvested, and GFP-positive frequencies indicative of HR repair events were quantified using a CyAn ADP Analyzer (Beckman Coulter, Inc.). Experiments were performed in triplicate, and data are presented as mean ± standard deviation (S.D.).

EXO1 R92A = target: T1, EXO1 R92A (Homo sapiens, UniProt Q9UQ84, R92A); assay: In vitro exonuclease activity of mutant with inhibitors; assay type: biochemical; conditions: EXO1 25 nM, DNA substrate 250 nM; C200 0-5 μM, F684 10-40 μM
T1 construct: The N-terminal domain of human EXO1 (hEXO1) (residues 1–345) was cloned into the pET28b vector; made in house; host or cells: E. coli BL21(DE3) and Rosetta 2(DE3)
Experimental: (§1) Simultaneously, we tested the effect of each point mutation on the in vitro exonuclease activity. Most mutations in site 1 result in some loss of enzymatic activity compared to WT EXO1 (Figure S13; WT:Figure S13a), particularly K85A and D225A (Figure S13b,f). […] However, at concentrations of 20 and 40 μM, the mutants (K85A and R92A) behaved more like WT (Figure b).
(§2) In both panels a and b, DMSO without inhibitors was used as a control, and its relative binding activity was set equal to 1.0. The EXO1 enzyme concentration was 25 nM, and the DNA substrate concentration was 250 nM. The values shown are the mean ± S.D. of three independent experiments.
(§3) The N-terminal domain of human EXO1 (hEXO1) (residues 1–345) was cloned into the pET28b vector. The following mutations were introduced via site-directed mutagenesis based on the findings of molecular docking analysis: K85A, E89A, R92A, I125A, D225A, K292A, and K294A (oligonucleotide primers listed in Table S1) following the established protocol.

EXO1 K85A = target: T2, EXO1 K85A (Homo sapiens, UniProt Q9UQ84, K85A); assay: as above; assay type: biochemical; conditions: EXO1 25 nM, DNA substrate 250 nM; C200 0-5 μM, F684 10-40 μM
T2 construct: The N-terminal domain of human EXO1 (hEXO1) (residues 1–345) was cloned into the pET28b vector; made in house; host or cells: E. coli BL21(DE3) and Rosetta 2(DE3)
Experimental: as §1, §2, §3

T-47D = assay: Cell line drug profiling, CellTiter Glo; assay type: cell-based; conditions: Homo sapiens, T47D, Breast, 72 h
Experimental: (§4) We tested the cytotoxicity of representative compounds from the seven EXO1i scaffolds against a subset of the NCI-60 cell line panel along with three additional pancreatic cell lines (FG, AsPC1, and CaPan2). In general, cells were seeded in 384-well tissue culture-treated plates overnight and treated with various concentrations of each hit compound (a serial 3-fold dilution from 50 μM for all tested hits). Each concentration was performed in duplicate. Cell viability was then measured by CellTiter Glo (Promega) after 72 h of treatment.

DU145 (B3) = assay: Cell line drug profiling, CellTiter Glo; assay type: cell-based; conditions: Homo sapiens, DU-145, Prostate, 72 h
Experimental: as §4

SKOV-3 = assay: Cell line drug profiling, CellTiter Glo; assay type: cell-based; conditions: Homo sapiens, SK-OV-3; SKOV-3, Ovarian, 72 h
Experimental: as §4

OVCAR-4 = assay: Cell line drug profiling, CellTiter Glo; assay type: cell-based; conditions: Homo sapiens; OVCAR-4, Ovarian, 72 h
Experimental: as §4

MDA-MB-231 cells = assay: Gel-based phospho-RPA end resection assay; assay type: cell-based, human; conditions: inhibitor overnight then 2 μM CPT 2 h, C5 10 μM
Experimental: The levels of RPA32 and phosphorylated RPA32 (S33) were analyzed by Western blotting using antibodies against RPA32 and phosphorylated RPA32 (S33). The total level of tubulin was used as a control. (b) Ratio of P-RPA:RPA levels calculated from panel a. […] U2OS cells carrying a GFP reporter for HR were infected with adenovirus expressing the I-SceI restriction enzyme. […] U2OS cells carrying a GFP reporter for HR were infected with adenovirus expressing the I-SceI restriction enzyme. […] For panels c and d, after 48 h, the cells were harvested, and the GFP-positive cells were analyzed by flow cytometry. Values are the mean ± S.D. of three independent experiments.
The treated cells were then lysed in the SDS-PAGE sample buffer, and the lysate was separated by SDS-PAGE prior to immobilization on a nitrocellulose membrane and Western blotting. Antibodies against unphosphorylated RPA, S33-P-RPA2, and tubulin were subsequently assayed according to the manufacturer’s recommendations. The ratio of P-RPA/RPA levels were quantified via ImageJ.

EXO1 [1] = target: T3, EXO1 (Homo sapiens, UniProt Q9UQ84); assay: Inhibitor kinetics by FRET-based EXO1 assay (Michaelis-Menten, Lineweaver-Burk); assay type: biochemical; conditions: for V max: Michaelis–Menten plot; for mechanism of EXO1 inhibition: from Michaelis–Menten and Lineweaver–Burk plots
T3 construct: made in house
T3 sequence (Q9UQ84 1-846): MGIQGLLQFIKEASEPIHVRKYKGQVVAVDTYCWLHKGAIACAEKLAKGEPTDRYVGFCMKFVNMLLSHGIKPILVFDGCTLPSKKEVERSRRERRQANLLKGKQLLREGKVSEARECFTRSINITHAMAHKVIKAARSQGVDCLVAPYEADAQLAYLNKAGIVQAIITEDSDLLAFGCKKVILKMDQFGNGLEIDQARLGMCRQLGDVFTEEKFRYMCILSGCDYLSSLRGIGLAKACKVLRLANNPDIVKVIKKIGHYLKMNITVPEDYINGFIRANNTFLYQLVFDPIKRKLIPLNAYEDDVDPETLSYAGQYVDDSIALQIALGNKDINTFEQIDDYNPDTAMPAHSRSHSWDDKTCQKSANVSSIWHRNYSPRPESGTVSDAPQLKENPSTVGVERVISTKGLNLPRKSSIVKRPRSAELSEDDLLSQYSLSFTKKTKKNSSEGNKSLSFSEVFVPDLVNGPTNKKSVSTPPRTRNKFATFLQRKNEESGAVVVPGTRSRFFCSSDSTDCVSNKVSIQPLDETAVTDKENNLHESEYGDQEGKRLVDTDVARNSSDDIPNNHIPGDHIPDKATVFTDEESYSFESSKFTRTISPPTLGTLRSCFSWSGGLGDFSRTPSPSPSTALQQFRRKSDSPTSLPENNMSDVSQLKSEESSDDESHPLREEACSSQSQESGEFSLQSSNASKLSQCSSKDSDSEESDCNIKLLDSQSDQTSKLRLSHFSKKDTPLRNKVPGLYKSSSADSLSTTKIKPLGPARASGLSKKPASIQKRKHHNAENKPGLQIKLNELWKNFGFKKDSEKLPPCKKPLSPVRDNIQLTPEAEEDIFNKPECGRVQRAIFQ
From the text: We then calculated the initial velocity of enzyme activity by calculating the rate within the linear region of the time-dependent RFU.
The initial velocity of enzyme activity was obtained by calculating the rate of the linear region of the time-dependent RFU.

EXO1 [2] = target: T3, EXO1; assay: Thermal shift assay; assay type: binding; conditions: maximum shift in Tm of EXO1 vs DMSO, increasing inhibitor concentrations
Experimental: To assess for changes in the thermal stability of EXO1 protein in response to treatment with candidate small molecule inhibitors or DMSO (vehicle control), the thermal shift assay (Applied Biosystems Protein Thermal Shift Dye Kit, Cat. #4461146) was utilized. The protein melt reaction mix consisted of freshly prepared 10× thermal shift dye, purified EXO1 enzyme (1 μg/uL), thermal shift buffer, DMSO or inhibitors, and sterilized Milli-Q water. A drug-free supermix was premade and dispensed in 96-well PCR plates followed by the addition of DMSO or inhibitors with increasing concentration. The reaction plate was heated from 10 to 98 °C at a rate of 0.5° per 10 s cycle, and the fluorescence intensity of individual wells was measured at 490/530 nm using a BioRad CFX96 Touch Real-Time PCR System. The fluorescence measurements of three technical replicates per treatment condition were then averaged to calculate melting temperature shift (ΔT m) as a readout for compound binding affinity.

SF-295 = assay: Cell line drug profiling, CellTiter Glo; assay type: cell-based, human; conditions: Homo sapiens, SF-295, 72 h
Experimental: as §4

T1 sequence (Q9UQ84 1-345 R92A): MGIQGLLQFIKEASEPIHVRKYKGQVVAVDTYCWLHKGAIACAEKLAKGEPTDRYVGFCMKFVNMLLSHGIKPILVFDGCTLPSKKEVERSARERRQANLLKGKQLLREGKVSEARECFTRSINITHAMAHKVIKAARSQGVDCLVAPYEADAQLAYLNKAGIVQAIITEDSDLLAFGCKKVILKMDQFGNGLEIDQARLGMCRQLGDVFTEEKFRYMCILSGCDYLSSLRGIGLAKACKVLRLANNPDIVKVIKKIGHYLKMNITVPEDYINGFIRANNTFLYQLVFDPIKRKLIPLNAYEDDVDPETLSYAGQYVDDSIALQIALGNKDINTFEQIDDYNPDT
T2 sequence (Q9UQ84 1-345 K85A): as the sequence (Q9UQ84 1-345 R92A) above, with K85A, A92R counted along it

SMILES: COC(=O)c1nc(-c2ccc(OC)cc2)nc(O)c1O [C200]
- HR frequency (GFP-positive cells) (U2OS cells): no significant changes
- inhibitory activity against EXO1 R92A mutant vs WT (EXO1 R92A): partially lost its inhibitory effect; also recorded: abolished
- inhibitory activity against EXO1 K85A mutant vs WT (EXO1 K85A): did not have a significant
- IC50 (T-47D): > 50 µM
- IC50 (DU145 (B3)): > 50 µM
- IC50 (SKOV-3): > 50 µM
- IC50 (OVCAR-4): > 50 µM
- CPT-induced P-RPA levels (DNA end resection) (MDA-MB-231 cells): significantly reduced
- V max (EXO1 [1]; 2 μM C200): 415.5 min^–1
- mechanism of EXO1 inhibition (EXO1 [1]): uncompetitive mechanism
- IC50 (EXO1 [1]; kinetic assays, read-out: IC50 of each compound, used as fixed inhibitor concentration): 2 µM
- ΔT m (EXO1 [2]): ~1 °C
- IC50 (SF-295): > 50 µM

SMILES: Cc1cccc(N2CCN(c3ccc(NS(=O)(=O)c4ccccc4)c(C(=O)O)c3)CC2)c1C [F684]
- HR frequency (GFP-positive cells) (U2OS cells): inhibition of HR that increased with dose
- inhibitory activity against EXO1 R92A mutant vs WT (EXO1 R92A): partially lost its inhibitory effects; also recorded: abolished
- inhibitory activity against EXO1 K85A mutant vs WT (EXO1 K85A): partially lost its inhibitory effects; also recorded: abolished
- CPT-induced P-RPA levels (DNA end resection) (MDA-MB-231 cells): significantly reduced
- V max (EXO1 [1]; […] μM F684): 114.1 min^–1
- mechanism of EXO1 inhibition (EXO1 [1]): uncompetitive mechanism
